Source: ChEMBL document CHEMBL3507680, “University of Dundee, Gates Library screen for HepG2 cell viability”

Assay: Human HepG2 cell viability assay in 384 well format
Assay type: toxicity, cell-based
Set-up: dose 125 nL, time 70.5 hour; concentration not given beside the values
Conditions: HepG2 cells, read-out: Inhibition

SMILES	cytotoxicity at 70.5 h [%]
CCN1CC2(CCN(C(=O)C(C)Oc3ccc(F)cc3Cl)CC2)CC1=O (stereo unspecified)	25
O=C(CN1CCCCC1Cn1cncn1)NCCOc1ccccc1 (stereo unspecified)	-1.79
CS(=O)(=O)NC[C@@H]1OC[C@H]2CN(C(=O)c3cnccn3)CC[C@H]21	-1.54
CC(C)Cc1nc(CN2CCN(CC(O)c3ccccc3)CC2)no1 (stereo unspecified)	-3.23
Cc1cc(Cc2ccccc2C)cc(C2CCCNC2)n1 (stereo unspecified)	-4.93
CCC1CCCCCN1C(=O)c1cc(C#N)c(SC)[nH]c1=O (stereo unspecified)	24.7
c1cn(-c2ccc(CN3CCCC3)cc2)c(-c2cc3n(n2)CCNC3)n1	-6.8
COCCn1cncc1CN1CCC(C(C)=O)(c2ccccc2)CC1	-15.1
COC(=O)NCC(=O)N(C)CC1Cc2ccccc2CN1C (stereo unspecified)	-2.82
Cc1nc(N2CCN(C(=O)c3ccc(O)cc3)CC2)c2cnn(C)c2n1	-18.5
CCN(c1ccc(C(=O)NCc2ccnc(C)n2)cc1)C(C)C	-8.68
CN(CCCc1nccn1C)C(=O)C1COc2ccccc2C1 (stereo unspecified)	-2.53
COc1ccc2c(c1)CCCN2Cc1nc2c(cnn2C)c(=O)[nH]1	-11.4
COCC1CCN(c2nc(C(C)(C)C)nc3c2cnn3C)C1 (stereo unspecified)	15.8
O=C1CN(CC[C@@H](O)c2ccccc2)CCN1c1ccccc1Cl	-7.1
N#CCCN(CC1CCOC1)S(=O)(=O)c1c(F)cccc1Cl (stereo unspecified)	-6.61
COCCN1CCN(CC(C)(O)c2cccc(C(F)(F)F)c2)CC1 (stereo unspecified)	-12.6
CN(CC(=O)NCC(F)(F)F)Cc1cccc2c1OCCO2	14.8
COc1cccc(CN2CCN(CC(C)C)C(=O)C2C)c1O (stereo unspecified)	0.611
O=C(c1ccccc1F)N1CC(c2nc(-c3ccc[nH]c3=O)no2)C1	-2.53
Cc1ncsc1CCC(=O)N1CCN(CCn2cncn2)CC1	-10.7

SMILES	cytotoxicity at 70.5 h [%]
COCCn1c(=O)n(C)c(=O)c2ccc(C3CCC(CN)CC3)nc21 (stereo unspecified)	-6.32
O=C(C1CCCO1)N1CCCn2c(nnc2Cn2ccnc2)C1 (stereo unspecified)	-7.67
Cn1ccnc1C(=O)N1CCCC(Cn2cc(CO)nn2)C1 (stereo unspecified)	-1.24
O=C1NCC2=C1C(c1ccc(O)cc1)Nc1ccccc1N2 (stereo unspecified)	-6.66
CO[C@H]1COCCN(C(=O)c2cc(C)oc2C(F)(F)F)C1	-3.96
CCc1nnc2n1CCN(C(=O)c1cn(-c3ccccc3)nn1)C2	3.13
Cc1cnc(CN2CCCC2c2noc(C(C)C)n2)cn1 (stereo unspecified)	1.04
CCn1c(CN(C)CC(=O)N(C)C)nc2c(F)cccc21	-11.7
COc1ccc(N2CCN(C(=O)Cn3nccc3C)CC2(C)C)cc1	-0.615
CCCn1ccnc1-c1nccn1CCN(C)C	-2.58
O=C(Nc1nc2c(s1)CCC2)c1cccnc1N1CCOCC1	-0.827
Cc1nn(C(C)C)c(C)c1S(=O)(=O)Nc1ccc(C(=O)O)cc1	-1.04
Cc1ncc(-c2ccnc(N3CCCCCC3)n2)c(-c2cccnc2)n1	-10.6
Cc1nc(CN2CCOC(Cn3cccn3)C2)nc2ccccc12 (stereo unspecified)	-12.1
CC(C)COCC1CN(Cc2ccoc2)Cc2ncn(C)c21 (stereo unspecified)	14
CN(C)C(=O)c1cccnc1-c1ccc2c(c1)OCO2	-11.3
CCC1CN(C(=O)c2csc3nc(-c4ccc(Cl)cc4)cn23)CCN1 (stereo unspecified)	-12.3
CC(C)c1nn(C)c(N(C)C)c1CNC1CCC(O)CC1 (stereo unspecified)	-6.96
CCOc1ccccc1CNC(=O)NCC(c1cnn(C)c1)N(C)C (stereo unspecified)	-9.13
Cc1c(CNS(=O)(=O)c2cccc(COC(C)C)c2)cnn1C	-5.71
Cc1cc(CCC2CN(CC3(O)CCCCC3)CCO2)ncn1 (stereo unspecified)	19.4

SMILES	cytotoxicity at 70.5 h [%]
CN1CCN([C@@H]2CCN(Cc3ccc4cc(F)ccc4n3)C[C@H]2O)CC1	-1.96
CS(=O)(=O)NC[C@]12COC[C@H]1CN(Cc1ccc3c(c1)OCO3)C2	5.12
CC(C)c1nc(CNc2ccc(N3CCC(CO)CC3)cn2)cs1	1.5
CC(=O)N(Cc1ncc(C)o1)C1CCN(Cc2nnc(C3CC3)o2)C1 (stereo unspecified)	10
O=C(c1ccc[nH]1)N1C[C@H]2CC[C@@H]1CN(C1Cc3ccccc3C1)C2	-9.66
C=C(C)CN1CCC(NC(=O)Nc2cc(C(N)=O)ccc2OC)CC1	-2.27
Cc1cnc(N2CCC3(CC(=O)N(Cc4csc(C)n4)C3)C2)nc1 (stereo unspecified)	-11.1
CC(=O)N(C)C1CCCc2nc(C)sc21 (stereo unspecified)	-11
Cc1nc(-c2ccccc2C(=O)O)cc(C2CCN(C(C)C)C2)n1 (stereo unspecified)	10.7
C[C@@H]1CN(C(=O)c2cc(Cn3ccc4ccccc43)[nH]n2)C[C@H](C)O1	26.1
CS(=O)(=O)NCc1cc2n(n1)CCCN(Cc1ccc(Cl)s1)C2	-9.1
O=C(CN1CCC(c2ccccc2)C1)NC(=O)NCC(F)(F)F (stereo unspecified)	21.4
COc1c2ccc(C(=O)NCCCn3ncccc3=O)cc2nn1C	13.9
COc1cccc(CN2CCC(c3cc(O)nc(C)n3)C2)c1 (stereo unspecified)	-3.89
Cc1ccc(CN2CC(C(=O)Nc3ccccc3)C3(CCOCC3)C2)s1 (stereo unspecified)	-13.1
Cc1ccn2c(F)c(C(=O)N3CCC4(CCCN(C)C4=O)C3)nc2c1 (stereo unspecified)	-8.44
Cc1cc(O)cc(=O)n1CCCC(=O)Nc1n[nH]c2ccccc12	-11.5
Cc1cnn(CCC(=O)N2CCN(c3nccs3)CC2)c1	17.7
Cc1cc(C)n(C2CCCN(C(=O)c3ccnc(N(C)C)c3)C2)n1 (stereo unspecified)	-0.851
Cc1cc(NC(=O)C(C)Cn2cc(Br)cn2)no1 (stereo unspecified)	1.29
COCCn1cc(C(=O)N2CCCC2c2cccs2)c2ccccc21 (stereo unspecified)	7.25

SMILES	cytotoxicity at 70.5 h [%]
Cc1nc(C(=O)N2CCN(c3ncccn3)[C@@H]3CS(=O)(=O)C[C@@H]32)cs1	-7.79
CSc1ccc(CN(C)Cc2noc(C(C)(C)C)n2)cc1	-6.11
O=C(c1ccc(S(=O)(=O)NC2CCC2)cc1)N1CC[C@H]2CNC[C@H]21	-3.93
c1cn(CCn2cnnc2)c(-c2cc3n(n2)CCCNC3)n1	-5.64
COc1ccc(Br)cc1SCCCS(C)(=O)=O	-0.49
CC(C)N1CCC(Cc2cncc(-c3ccccc3C(=O)O)n2)C1 (stereo unspecified)	-4.44
Cc1ccc(CN(Cc2cc(=O)n3cccc(C)c3n2)C(C)C)o1	-14.3
Cc1cnn(CC(C)NCc2ccccc2OCc2cccnc2)c1 (stereo unspecified)	-7.82
Cc1ncsc1-c1nnc(C2CCCN2C(=O)CCn2cccn2)o1 (stereo unspecified)	-9.26
Cc1nc(C)c(C(=O)NCc2nc3cccc(C)c3n2C)o1	-0.751
Cc1ccc(N2CCC3(CC2)CNC(=O)CO3)nn1	-4.26
Cc1ccc2c(c1)SCC(=O)N2CC(=O)N1CCCC1c1cc(C)on1 (stereo unspecified)	-1.98
Cc1cc(NCCNc2ncccc2C)n2nc(C)cc2n1	-15.2
Cc1cc(C(NC(=O)CNS(C)(=O)=O)C(C)C)c(C)s1 (stereo unspecified)	1.39
Cc1nc(CCCNC(=O)c2c(F)cccc2Br)n[nH]1	3.62
O=C(NCCOc1ccc(Cl)cn1)NCCc1ccccn1	-3.16
CCC(O)CN1CCN(C(=O)c2cccn2Cc2ccncc2)CC1 (stereo unspecified)	21.3
CCOc1ccc(CNC(C)c2ccc3[nH]c(=O)[nH]c3c2)cc1 (stereo unspecified)	1.32
